Measurements reported in PMC10182601, “Biological evaluation of novel gemcitabine analog in patient-derived xenograft models of pancreatic cancer” (BMC Cancer, 2023).
Counter-ions that a name gives are not always drawn.

Columns and labels:
[1] = tested on: PCa PDX tumor from Black patients; experiment: Tumor efficacy in PDX mice bearing tumors from Black PCa patients; format: in vivo; conditions: 30 mg/kg Gem equivalent i.v. twice weekly for 3 weeks
Text: The implantation of surgical tumor tissue into immuno-compromised mice was described previously. A viable portion of resected tissue 2 × 2 mm in size was briefly isolated immediately from surgically resected primary PCa specimens (from Blacks and White patients) with care to minimize critical ischemia time. The PCa tissues were then implanted subcutaneously into an 8-week-old mouse (The Jackson Laboratory, Bar Harbor, ME). The xenografts were allowed to grow to a maximum diameter of 1.5 cm before passage and in vitro culture.
Mice-bearing surgically implanted tumors obtained from Black and White patients with sizes of 70–100 mm^3 were randomized into groups as control, GemHCl, and 4NSG-SLN (n = 5/group). Baseline tumor volume was established, and dosing initiation began on day 1 with intravenous administration of 30 mg/kg Gem (twice weekly for 3 weeks) with an equivalent dose of GemHCl and 4NSG-SLN [42]. Once tumors became palpable, their volume was measured thrice per week, and the mice's weight was recorded twice weekly. Tumor volumes were measured using digital calipers and calculated using the following equation: V = (L*(W)^2)/2, where V is the volume (mm^3), W(width) is the smaller of two perpendicular tumor axes, and the L (length) is the larger of two vertical axes. Mean tumor volume growth curves were calculated for each treatment group.

HER2 = experiment: Immunohistochemistry of PDX tumor tissue, HER2; format: in vivo, mice
PPCL-46 cells = experiment: Cell migration (wound) assay, PPCL-46; format: cell-based, human; conditions: PPCL-46, 5 µM, 48 h
Method: A cell migration assay was conducted to determine the effect of 4NSG-SLN on PPCL-192 and PPCL-46 cell motility. The Ibidi cell culture inserts were used to grow the cells into two confluent monolayers separated by a "wound" for this assay. The cells were seeded into 24-well plates at a cell density of 2.5 × 10^5, 48 h at 37 °C. At 75% confluency, cells formed adherent monolayers on either side of the tissue culture insert. Before treatment, the cells were serum-starved by replacing complete media with base media (DMEM) and then further incubated for 48 h. After serum starvation, the inserts were gently removed to generate a gap or "wound" between the two confluent layers of cells, and the monolayers were washed with experimental media. Afterward, cells were exposed to 5 μM concentration of GemHCl and 4NSG-SLN treatments. Images of the cells invading the wound were then captured after 48 h with a Nikon Ti Eclipse microscope.

PPCL-192 cells = experiment: Cell cycle distribution (PI, flow cytometry), PPCL-192; format: cell-based, human; conditions: 24 h
Method: Cell cycle study was performed to determine the effect of 4NSG-SLN on the cell cycle; PPCL-192 and PPCL-46 cells (2 × 10^5 cells per well) were seeded in 6-well plates and cultured using DMEM medium supplemented with 10% FBS10 mM HEPES, 10% FBS, and 1% penicillin/streptomycin were seeded in 6-well plates and incubated at 37 °C. After the cells reached 75% confluence, they were exposed to different concentrations (5 μM,10 μM, and 20 µM) of GemHCl and 4NSG-SLN. After 24 h exposure, cells were harvested, washed with PBS, centrifuged at 300 × g for 5 min, resuspended the pellets in 100 μL of PBS, and passed through a 28 5/8 needle to disperse them into single cells. Fixation and permeation of cells were performed using cold 70% ethanol while vortexing. Cells were then stored at − 20 °C overnight. The cells were resuspended in 0.1 mg/mL RNase, stained with […] PI, and the phase distribution was examined using flow cytometry (FACScalibur-Becton Dickinson).

VEGFR = experiment: Immunohistochemistry of PDX tumor tissue, VEGFR; format: in vivo, mice; conditions: for VEGF % Moderate Positive Cells / VEGF % Positive / VEGF % Weak Positive Cells / VEGF H Score / VEGF % Strong Positive Cells: IHC
Method: [The source words this procedure for another target and reports this target under the same test.] Tissue samples from mice bearing tumors from Black and White PCa patients post treatments with GemHCl and 4NSG-SLN were excised and immediately washed with PBS, fixed (10% buffered formalin) for 24 h, and transferred to 70% ethanol for histopathological analysis. Histology was performed by HistoWiz Inc. (Histowiz.com) according to manufacturer protocol. Samples were embedded in paraffin, and 4 μm sections were prepared. Immunohistochemistry was performed on a Bond Rx autostainer (Leica Biosystems) with enzyme treatment (1:1000) using standard protocols (https://home.histowiz.com/faq/). Samples were incubated overnight with primary antibodies (Antibodies used were rat monoclonal F4/80 primary antibody (eBioscience, 14–4801, and 1:200), and immunohistochemical staining was done using rabbit anti-rat secondary (Vector Labs, 1:100). Bond Polymer Refine Detection was used per the manufacturer's protocol (Leica Biosystems). After staining, sections were dehydrated and filmed, coverslipped using a Tissue-Tek Prisma coverslip (Sakura). Whole slide scanning (40x) was performed on an Aperio AT2 (Leica Biosystems).

[2] = BT PDX tumor tissue after treatment, IHC
[3] = BT and WT PDX tumor tissues, 40X
[4] = WT PDX tumor tissue after treatment, IHC
[5] = BT PDX tumor tissue after treatment
[6] = WT PDX tumor tissue after treatment

Which “Mean terminal tumor volume” value ([1]; day 1, BT PDX mice) does the source give for `Nc1ccn([C@@H]2O[C@H](CO)[C@@H](O)C2(F)F)c(=O)n1` [GemHCl, Gemcitabine hydrochloride] here?
Its value is 12.5 ± 6 mm^3.

And the “Mean terminal tumor volume” value ([1]; day 3, BT PDX mice)?
Its value is 25.0 ± 12 mm^3.

And the “Mean terminal tumor volume” value ([1]; day 5, BT PDX mice)?
The value was 35.7 ± 18 mm^3.

And the “Mean terminal tumor volume” value ([1]; day 7, BT PDX mice)?
Its value is 73.0 ± 21 mm^3.

What about the “Mean terminal tumor volume” value ([1]; day 11, BT PDX mice) of the same compound?
The value was 662. ± 198 mm^3.

What about the “Mean terminal tumor volume” value ([1]; day 13, BT PDX mice) of the same compound?
The value was 767. ± 194 mm^3.

What about the “Mean terminal tumor volume” value ([1]; day 15, BT PDX mice) of the same compound?
The value was 911. ± 152 mm^3.

What about the “Mean terminal tumor volume” value ([1]; day 17, BT PDX mice) of the same compound?
The value was 990. ± 151 mm^3.

What about the “Mean terminal tumor volume” value ([1]; day 19, BT PDX mice) of the same compound?
Its value is 1129 ± 172 mm^3.

And the “Mean terminal tumor volume” value ([1]; day 21, BT PDX mice)?
The value was 1204 ± 184 mm^3.

And the “Mean terminal tumor volume” value ([1]; day 23, BT PDX mice)?
Its value is 1456 ± 154 mm^3.

What about the “Mean terminal tumor volume” value ([1]; day 25, BT PDX mice) of the same compound?
The value was 1681 ± 172 mm^3.

And the “HER2 % Moderate Positive Cells” value (HER2; [2])?
The value was 7.2 ± 4.3%.

And the “HER2 % Positive” value (HER2; [2])?
Its value is 17.2 ± 1.0%.

What about the “HER2 % Strong Positive Cells” value (HER2; [2]) of the same compound?
Its value is 3.7 ± 0.8%.

And the “HER2 % Weak Positive Cells” value (HER2; [2])?
Its value is 9.3 ± 1.4%.

And the “HER2 %Negative Cells” value (HER2; [2])?
Its value is 62.6 ± 3.4%.

What about the “HER2 H Score” value (HER2; [2]) of the same compound?
Its value is 31.8.

And the “HER2 expression in representative IHC images” value (HER2; [3])?
The value was “moderate to high”.

And the “HER2 % Positive” value (HER2; [4])?
Its value is 19.9 ± 1.5%.

And the “HER2 % Strong Positive Cells” value (HER2; [4])?
The value was 3.6 ± 1.2%.

And the “HER2 % Weak Positive Cells” value (HER2; [4])?
Its value is 8.9 ± 0.8%.

What about the “HER2 %Negative Cells” value (HER2; [4]) of the same compound?
Its value is 57.4 ± 7.3%.

And the “HER2 H Score” value (HER2; [4])?
Its value is 30.9.

What about the “Number of cells migrated” value (PPCL-46 cells) of the same compound?
Its value is 120 ± 3.8.

And the “%G1” value (PPCL-192 cells; PPCL-192, 5 μM)?
The value was 71.08%.

And the “%G2” value (PPCL-192 cells; PPCL-192, 5 μM)?
Its value is 11.05%.

What about the “%S” value (PPCL-192 cells; PPCL-192, 5 μM) of the same compound?
The value was 17.87%.

What about the “%G1” value (PPCL-192 cells; PPCL-192, 10 μM) of the same compound?
The value was 74.75%.

And the “%G2” value (PPCL-192 cells; PPCL-192, 10 μM)?
The value was 9.59%.

What about the “%S” value (PPCL-192 cells; PPCL-192, 10 μM) of the same compound?
The value was 15.66%.

And the “%G1” value (PPCL-192 cells; PPCL-192, 20 μM)?
Its value is 79.91%.

And the “%G2” value (PPCL-192 cells; PPCL-192, 20 μM)?
Its value is 8.23%.

And the “%S” value (PPCL-192 cells; PPCL-192, 20 μM)?
Its value is 11.86%.

What about the “VEGF % Moderate Positive Cells” value (VEGFR; [5]) of the same compound?
Its value is 0.6 ± 0.2%.

And the “VEGF % Positive” value (VEGFR; [5])?
The value was 27 ± 0.4%.

And the “VEGF % Weak Positive Cells” value (VEGFR; [5])?
The value was 1.2 ± 0.3%.

What about the “VEGF H Score” value (VEGFR; [5]) of the same compound?
The value was 4.7.

What about the “VEGF % Strong Positive Cells” value (VEGFR; BT PDX tumor tissue after treatment, first line of this name (r21)) of the same compound?
Its value is 0.5 ± 0.1%.

What about the “VEGF % Strong Positive Cells” value (VEGFR; BT PDX tumor tissue after treatment, second line of this name (r22)) of the same compound?
The value was 70.7 ± 7.8%.

What about the “VEGFR expression in representative IHC images” value (VEGFR; [3]) of the same compound?
The value was “moderate to high”.

What about the “VEGF % Moderate Positive Cells” value (VEGFR; [6]) of the same compound?
Its value is 0.6 ± 0.1%.

And the “VEGF % Positive” value (VEGFR; [6])?
The value was 30 ± 1.4%.

What about the “VEGF % Weak Positive Cells” value (VEGFR; [6]) of the same compound?
The value was 0.7 ± 0.3%.

What about the “VEGF H Score” value (VEGFR; [6]) of the same compound?
The value was 10.0.

What about the “VEGF % Strong Positive Cells” value (VEGFR; WT PDX tumor tissue after treatment, first line of this name (r21)) of the same compound?
Its value is 0.7 ± 0.3%.

And the “VEGF % Strong Positive Cells” value (VEGFR; WT PDX tumor tissue after treatment, second line of this name (r22))?
Its value is 68 ± 3.8%.
